Reference: paper PMC4798767, “Hydrophobicity of Antifungal β-Peptides Is Associated with Their Cytotoxic Effect on In Vitro Human Colon Caco-2 and Liver HepG2 Cells” (PLoS ONE, 2016)
Converted amounts (≈) assume the structure as drawn. “Also recorded” adds a separate entry of the source.

Key:
[1] = tested on: HepG2 cells; test: cells; type: cell-based, human; conditions: for IC50 HepG2: 24 h
Method: (§1) HepG2 and Caco-2 were tittered from a culture at 70–80% confluence. HepG2 and Caco-2 cells were seeded at 13,000 and 9,000 cells, respectively, in a clear flat bottom 96-well plate with dark walls (Corning, NY, USA). Then they were allowed to adhere and proliferate in DMEM for 48 hours. Agents were prepared under the following conditions: β-peptides were dissolved and diluted in DMEM to the final working concentration; while AmpB and Keto were first dissolved in DMSO as a vehicle. The DMSO concentration was kept under 0.5% v/v in the experimental sample as well as in the untreated control cell media. Cells were exposed to the agent during 24 hours. Afterwards, the cells were washed two times with Hank’s Balanced Salt Solution (HBSS). Then, fresh DMEM was added to each plate and incubated until the control reached approximately 90% confluency. Cell viability was determined using CellTiter Blue™ (Promega, WI, USA), an assay based on the capacity of cells to reduce resazurin to resorufin, a fluorescent product whose intensity is proportional to the viable cells in the sample. […] After incubation, the fluorescence was measured using a Spectra Max Gemini EM spectrofluorometer (560Ex/590Em) (Sunnyvale, CA, USA). The long-term effect of the treatments with β-peptides was assessed using the model peptide (ACHC-β3hV-β3hK) in a clonogenic assay. In these assays, 1.25x10^5 and 9x10^4 cells/ml from HepG2 and Caco-2, respectively, were seeded in a 25cm^2 flask. The media was changed every two days. Once cells reached a confluence between 70–80%, they were treated in the flask with (ACHC-β3hV-β3hK) at 20 μg/mL in DMEM, a sub-lethal concentration, for 24 hours. They were then washed two times with PBS and allowed to recover in fresh medium for six hours, followed by trypsinization and tittering.
(§2) In vitro cytotoxicity assessments for HepG2 and Caco-2 were performed two independent times, each with four replicates (n = 8). A multivariate study of the data was performed through PCA to ascertain the impact of increasing β-peptide hydrophobicity on the viability of the treated cells. PCA was done using XLSTAT 2014 trial version, under a Pearson approach. The input matrix set to the program consisted of eleven rows and four columns of data. The first column contained the concentrations tested and the remainder columns contained the viability ratio obtained after exposure to the β-peptides #4, #5, and #16 (see Fig 1ii). The data of β-peptide #21 was not used in this analysis due to structural differences (lack of ACHC residues), which affects the molecule’s helicity. The ratio IC50/MICaver represents the selectivity of the β-peptides for the fungal cells over that of host cells, termed selectivity index (SI). For the purpose of the present study the SIs were calculated based on MICs for C. albicans published previously.

[2] = tested on: Caco-2 cells; test: In vitro cytotoxicity, CellTiter Blue viability, dose-effect curves; type: cell-based; conditions: for IC50 Caco-2: 24 h
Method: as §1, §2

[3] = HPLC-RP retention time as measure of β-peptide hydrophobicity; type: physicochemical; conditions: used to sort the β-peptides by hydrophobicity
Method: Fig 1 i. Structures of antifungal β-peptides used in this study. The codification (#number) corresponds to the nomenclature used by Lee et al. in a previous publication. β-peptide (e) is a fluorescently labeled β-peptide. The C-terminus is amidated for all β-peptides. ii. HPLC-RP retention time for the β-peptides synthesized in this work, see Figs A-D in S1 File for further details. TEXT PRINTED IN THE PICTURE: (ii) #4: Retention time tR: 24.5 ± 0.2 min | (ii) #21: Retention time tR: 25.2 ± 0.2 min | (ii) #5: Retention time tR: 25.4 ± 0.1 min | (ii) #16: Retention time tR: 27.4 ± 0.2 min
The experiments compiled here establish structural-functional correlations of the β-peptides as a function of the cytotoxicity in mammalian cells other than erythrocytes.

[4] = tested on: Caco-2 cells; test: Clonogenic assay, long-term effect; type: cell-based; conditions: Caco-2, 20 μg/mL for 24 hours
Method: as §1
(§3) The long-term cytotoxic effect of β-peptides was evaluated using clonogenic assays (see Fig F in S1 File). In order to validate the data obtained from the dose-response curves for Caco-2 and HepG2, (ACHC-β3hV-β3hK) was selected as a β-peptide model to perform these assays due to its well-established biological activity against C. albicans, its hemolytic activity, and, with this study, its effect on HepG2 and Caco-2. A constant concentration of 20 μg/mL was chosen for these experiments. The chosen concentration of (ACHC-β3hV-β3hK) falls within the range of concentrations used in short-term assays, where 20 μg/mL of this β-peptide assured that both of the cell lines were affected to the same extent.

[5] = tested on: HepG2 cells; test: Clonogenic assay, long-term effect; type: cell-based; conditions: HepG2, 20 μg/mL for 24 hours
Method: as §1, §3

[6] = two independent times, each three biological replicates

CC(=O)N1CCN(c2ccc(OCC3COC(Cn4ccnc4)(c4ccc(Cl)cc4Cl)O3)cc2)CC1 (stereo not shown) [Keto, ketoconazole, reference compound]
IC50 ([1]; Homo sapiens, HepG2, 24 hours of exposure, CellTiter Blue, two independent experiments, each four replicates (n = 8)): 70 µg/mL (≈ 132 µM)
cytotoxicity towards Caco-2, dose-effect curve in words ([2]; 24 hours of exposure, tested concentration range): not statistically different than the response observed for HepG2

CC(C)[C@@H](CC(=O)N[C@@H](CCCNC(=N)N)CC(N)=O)NC(=O)[C@H]1CCCC[C@@H]1NC(=O)C[C@H](CCCNC(=N)N)NC(=O)C[C@@H](NC(=O)[C@H]1CCCC[C@@H]1NC(=O)C[C@H](CCCNC(=N)N)NC(=O)C[C@@H](NC(=O)[C@H]1CCCC[C@@H]1N)C(C)C)C(C)C [#5, NH2-(ACHC-β^3hVal-β^3hArg)3]
Retention time tR [3]: 25.4 ± 0.1 min
IC50 HepG2 [1]: 47.25 ± 5.12 µg/mL (≈ 38 µM)
IC50 Caco-2 [2]: 43.33 ± 9.0 µg/mL (≈ 34.9 µM)

CC(C)[C@@H](CC(=O)N[C@@H](CCCNC(=N)N)CC(=O)N[C@H](CC(=O)N[C@H](CC(=O)N[C@@H](CCCNC(=N)N)CC(=O)N[C@H](CC(=O)N[C@H](CC(=O)N[C@@H](CCCNC(=N)N)CC(N)=O)C(C)C)C(C)C)C(C)C)C(C)C)NC(=O)C[C@@H](NC(=O)C[C@@H](N)Cc1ccc(O)cc1)C(C)C [#21, NH2-β^3hTyr-(β^3hVal-β^3hVal-β^3hArg)3]
Retention time tR [3]: 25.2 ± 0.2 min
IC50 HepG2 [1]: 52.5 ± 4.98 µg/mL (≈ 37.9 µM)
IC50 Caco-2 [2]: 31.33 ± 3.27 µg/mL (≈ 22.6 µM)

NCCCC[C@@H](CC(N)=O)NC(=O)C[C@H](Cc1ccccc1)NC(=O)[C@H]1CCCC[C@@H]1NC(=O)C[C@H](CCCCN)NC(=O)C[C@H](Cc1ccccc1)NC(=O)[C@H]1CCCC[C@@H]1NC(=O)C[C@H](CCCCN)NC(=O)C[C@H](Cc1ccccc1)NC(=O)[C@H]1CCCC[C@@H]1NC(=O)C[C@@H](N)Cc1ccc(O)cc1 [#16, NH2-β^3hTyr-(ACHC-β^3hPhe-β^3hLys)3]
cytotoxicity towards HepG2, dose-effect curve in words [1]: greatest toxic effect at these lower concentrations
IC50 HepG2 [1]: 42.5 ± 6.21 µg/mL (≈ 28.7 µM)

C[C@@H]1[C@H](O)[C@@H](C)/C=C/C=C/C=C/C=C/C=C/C=C/C=C/[C@H](O[C@@H]2O[C@H](C)[C@@H](O)[C@H](N)[C@@H]2O)C[C@@H]2O[C@](O)(C[C@@H](O)C[C@@H](O)[C@H](O)CC[C@@H](O)C[C@@H](O)CC(=O)O[C@H]1C)C[C@H](O)[C@H]2C(=O)O [AmpB, Amphotericin B, reference compound]
cytotoxicity towards HepG2, dose-effect curve in words [1]: did not reach 100% cytotoxicity
IC30 HepG2 ([1]; 24 hours of exposure, from dose-effect curve): 30 µg/mL (≈ 32.5 µM)
inhibition at 30 µg/mL ([1]; Homo sapiens, HepG2, 30 μg/mL, 24 hours of exposure): 30%
cytotoxicity towards Caco-2, dose-effect curve in words ([2]; Caco-2): did not affect the viability

COc1ccc2cc(C(=O)NCCOCCOCC(=O)N[C@H]3CCCC[C@@H]3C(=O)N[C@H](CC(=O)N[C@@H](CCCCN)CC(=O)N[C@H]3CCCC[C@@H]3C(=O)N[C@H](CC(=O)N[C@@H](CCCCN)CC(=O)N[C@H]3CCCC[C@@H]3C(=O)N[C@H](CC(=O)N[C@@H](CCCCN)CC(N)=O)C(C)C)C(C)C)C(C)C)c(=O)oc2c1 [coumarin-(ACHC-β3hV-β3hK)]
effect on viability at 16 μg/mL [1]: does not exert a significant effect on viability

CC(C)[C@@H](CC(=O)N[C@@H](CCCCN)CC(N)=O)NC(=O)[C@H]1CCCC[C@@H]1NC(=O)C[C@H](CCCCN)NC(=O)C[C@@H](NC(=O)[C@H]1CCCC[C@@H]1NC(=O)C[C@H](CCCCN)NC(=O)C[C@@H](NC(=O)[C@H]1CCCC[C@@H]1N)C(C)C)C(C)C [#4, NH2-(ACHC-β^3hVal-β^3hLys)3]
surviving fraction (long-term) versus short-term viability; colony forming ability ([4]; listed as (ACHC-β3hV-β3hK)): no significant difference; also recorded: slight decrease in colony forming ability
plating efficiency of treated cells [4, 6]: > 22%
surviving fraction (long-term) versus short-term viability [5]: no significant difference
plating efficiency of treated cells [5, 6]: > 9.5%
Retention time tR [3]: 24.5 ± 0.2 min
IC50 HepG2 [1]: 38.75 ± 0.89 µg/mL (≈ 33.4 µM)
IC50 Caco-2 [2]: 27.33 ± 1.5 µg/mL (≈ 23.6 µM)
